According to US20230183218A1, “CONDENSED SUBSTITUTED HYDROPYRROLES AS ANTAGONISTS OF THE MUSCARINIC ACETYLCHOLINE RECEPTOR M4” (Vanderbilt University, priority 2020, published 2023):

What was measured:
Human M4 = molecular target: T1, Human M4 (Homo sapiens, UniProt P08173); assay: mAChR M4 cell-based functional assay (calcium flux, antagonist mode vs EC80 acetylcholine), human M4/Gqi5/CHO-K1 cells; settings: for remaining activity at 30 µM: CHO-K1, read-out: Human M4 Emin (%); for IC50: decrease of response elicited by EC80 acetylcholine, human M4/Gqi5 CHO-K1 cells
T1 construct: expressed in transfected cells; host or cells: CHO-K1 (ATCC), stably co-expressing chimeric G protein Gqi5
T1 sequence (P08173 1-479): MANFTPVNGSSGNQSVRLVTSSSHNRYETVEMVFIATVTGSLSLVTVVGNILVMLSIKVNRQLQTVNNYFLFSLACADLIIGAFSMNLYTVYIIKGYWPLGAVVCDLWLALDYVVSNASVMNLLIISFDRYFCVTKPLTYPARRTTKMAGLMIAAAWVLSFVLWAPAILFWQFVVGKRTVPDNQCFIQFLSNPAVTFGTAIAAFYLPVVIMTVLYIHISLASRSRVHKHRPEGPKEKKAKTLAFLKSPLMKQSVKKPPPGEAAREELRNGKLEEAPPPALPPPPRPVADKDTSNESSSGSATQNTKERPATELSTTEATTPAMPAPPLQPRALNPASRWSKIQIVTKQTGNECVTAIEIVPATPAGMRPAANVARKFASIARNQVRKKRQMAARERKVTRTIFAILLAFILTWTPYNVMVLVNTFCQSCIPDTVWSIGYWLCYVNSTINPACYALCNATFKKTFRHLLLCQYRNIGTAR
Outline: (§1)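 CHO-K1 cells stably expressing human or rat M4 with Gqi5, Fluo-4 loaded; calcium measured by fluorescence ratio on FDSS. Compound added, then EC20 acetylcholine at 143 s and EC80 at 268 s; IC50 from decrease of EC80 response, four-parameter logistic fit.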

Rat M4 = molecular target: T2, Rat M4 (Rattus norvegicus, UniProt P08485); assay: mAChR M4 cell-based functional assay (calcium flux, antagonist mode vs EC80 acetylcholine), rat M4/Gqi5/CHO-K1 cells; settings: for remaining activity at 30 µM: CHO-K1, read-out: Rat M4 Emin (%); for IC50: decrease of response elicited by EC80 acetylcholine, rat M4/Gqi5 CHO-K1 cells
T2 construct: expressed in transfected cells; host or cells: CHO-K1 (ATCC), stably co-expressing chimeric G protein Gqi5
T2 sequence (P08485 1-478): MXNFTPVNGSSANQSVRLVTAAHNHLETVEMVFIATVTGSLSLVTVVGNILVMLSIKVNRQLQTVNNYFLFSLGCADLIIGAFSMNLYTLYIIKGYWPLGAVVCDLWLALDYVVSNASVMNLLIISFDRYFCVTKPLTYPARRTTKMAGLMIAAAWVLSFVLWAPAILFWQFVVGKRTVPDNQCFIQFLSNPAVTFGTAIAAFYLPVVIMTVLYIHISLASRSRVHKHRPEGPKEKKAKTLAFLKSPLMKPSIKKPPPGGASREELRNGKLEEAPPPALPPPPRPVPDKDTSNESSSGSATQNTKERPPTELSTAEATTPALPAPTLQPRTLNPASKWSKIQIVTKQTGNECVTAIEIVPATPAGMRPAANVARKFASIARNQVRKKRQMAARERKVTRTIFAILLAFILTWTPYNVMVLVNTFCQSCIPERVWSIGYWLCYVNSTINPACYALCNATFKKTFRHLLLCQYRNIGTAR
Outline: as §1

[1] = % ACh maximum at 30 μM, human M4

Compound	remaining activity at 30 µM (Human M4; [1])	IC50 (Human M4)	remaining activity at 30 µM (Rat M4; % ACh maximum at 30 μM, rat M4)	IC50 (Rat M4)	Human M4 Emin (%) (Human M4; [1])	Rat M4 Emin (%) (Rat M4; % ACh maximum at 30 μM, rat M4)
Cn1cc2cc(-c3ccc(N[C@H]4C[C@@H]5CN(C6CCOCC6)C[C@@H]5C4)nn3)ccc2n1 [compound 62, (3aR,5s,6aS)-N-(6-(2-methyl-2H-indazol-5-yl)pyridazin-3-yl)-2-(tetrahydro-2H-pyran-4-yl)octahydrocyclopenta[c]pyrrol-5-amine]	9%	1730 nM	11%	2130 nM		
Cn1cc2cc(-c3ccc(N[C@H]4C[C@@H]5CN(C6CCOC(C)(C)C6)C[C@@H]5C4)nn3)ccc2n1 (stereo partly drawn) [compound 63, (3aR,5s,6aS)-2-(2,2-dimethyltetrahydro-2H-pyran-4-yl)-N-(6-(2-methyl-2H-indazol-5-yl)pyridazin-3-yl)octahydrocyclopenta[c]pyrrol-5-amine]	3%	9.53 nM	5%	374 nM		
Fc1ccc(Cl)c(-c2ccc(N[C@H]3C[C@@H]4CN(C5(C6CCOCC6)CC5)C[C@@H]4C3)nn2)c1 [compound 64, (3aR,5s,6aS)-N-(6-(2-chloro-5-fluorophenyl)pyridazin-3-yl)-2-(1-(tetrahydro-2H-pyran-4-yl)cyclopropyl)octahydrocyclopenta[c]pyrrol-5-amine]	4%	161 nM	32%	> 10000 nM		
CC1(C)CC(N2C[C@H]3C[C@H](Nc4ccc([S+]([O-])c5ccccc5)nn4)C[C@H]3C2)CCO1 (stereo partly drawn) [compound 65, (3aR,5s,6aS)-2-(2,2-dimethyltetrahydro-2H-pyran-4-yl)-N-(6-(phenylsulfinyl)pyridazin-3-yl)octahydrocyclopenta[c]pyrrol-5-amine]	5%		10%			
CC1(C)CC(N2C[C@H]3C[C@H](Nc4ccc(S(=O)(=O)C5CCCCC5)nn4)C[C@H]3C2)CCO1 (stereo partly drawn) [compound 66, (3aR,5s,6aS)-N-(6-(cyclohexylsulfonyl)pyridazin-3-yl)-2-(2,2-dimethyltetrahydro-2H-pyran-4-yl)octahydrocyclopenta[c]pyrrol-5-amine]				460 nM	5%	7%
Fc1ccc(Cl)c(-c2ccc(N[C@H]3C[C@@H]4CN(C5CCC(F)(F)CC5)C[C@@H]4C3)nn2)c1 [compound 67, (3aR,5s,6aS)-N-(6-(2-chloro-5-fluorophenyl)pyridazin-3-yl)-2-(4,4-difluorocyclohexyl)octahydrocyclopenta[c]pyrrol-5-amine]	4%	2.42 nM	13%	436 nM		
CC1(C)CCC(N2C[C@H]3C[C@H](Nc4ccc(-c5cc(F)ccc5Cl)nn4)C[C@H]3C2)CC1 [compound 68, (3aR,5s,6aS)-N-(6-(2-chloro-5-fluorophenyl)pyridazin-3-yl)-2-(4,4-dimethylcyclohexyl)octahydrocyclopenta[c]pyrrol-5-amine]	3%	2.79 nM	2%	102 nM		

Results, then the compound that gave them:

remaining activity at 30 µM (Human M4; [1])	IC50 (Human M4)	remaining activity at 30 µM (Rat M4; % ACh maximum at 30 μM, rat M4)	IC50 (Rat M4)	Human M4 Emin (%) (Human M4; [1])	Rat M4 Emin (%) (Rat M4; % ACh maximum at 30 μM, rat M4)	Compound
4%	11.8 nM	17%	905 nM			Fc1ccc(Cl)c(-c2ccc(N[C@H]3C[C@@H]4CN(C5CC6(COC6)C5)C[C@@H]4C3)nn2)c1 [compound 69, (3aR,5s,6aS)-N-(6-(2-chloro-5-fluorophenyl)pyridazin-3-yl)-2-(2-oxaspiro[3.3]heptan-6-yl)octahydrocyclopenta[c]pyrrol-5-amine]
4%	12.8 nM	13%	3970 nM			CC1(C)C(=O)N(C2CC2)c2nnc(N[C@H]3C[C@@H]4CN(CC5CCOCC5)C[C@@H]4C3)cc21 [compound 70, 7-cyclopropyl-5,5-dimethyl-3-(((3aR,5s,6aS)-2-((tetrahydro-2H-pyran-4-yl)methyl)octahydrocyclopenta[c]pyrrol-5-yl)amino)-5,7-dihydro-6H-pyrrolo [2,3-c]pyridazin-6-one]
3%	12.4 nM	5%	369 nM			C=CCN1C(=O)C(C)(C)c2cc(N[C@H]3C[C@@H]4CN(CCC(C)(C)C)C[C@@H]4C3)nnc21 [compound 71, 7-allyl-3-(((3aR,5s,6aS)-2-(3,3-dimethylbutyl)octahydrocyclopenta[c]pyrrol-5-yl)amino)-5,5-dimethyl-5,7-dihydro-6H-pyrrolo[2,3-c]pyridazin-6-one]
4%	10.5 nM	4%	217 nM			CCCN1C(=O)C(C)(C)c2cc(N[C@H]3C[C@@H]4CN(CCC(C)(C)C)C[C@@H]4C3)nnc21 [compound 72, 3-(((3aR,5s,6aS)-2-(3,3-dimethylbutyl)octahydrocyclopenta[c]pyrrol-5-yl)amino)-5,5-dimethyl-7-propyl-5,7-dihydro-6H-pyrrolo[2,3-c]pyridazin-6-one]
3%	13.5 nM	8%	1360 nM			CC(C)(O)CN1C[C@H]2C[C@H](Nc3ccc(-c4cc(F)ccc4Cl)nn3)C[C@H]2C1 [compound 73, 1-((3aR,5s,6aS)-5-((6-(2-Chloro-5-fluorophenyl)pyridazin-3-yl)amino)hexahydrocyclopenta[c]pyrrol-2(1H)-yl)-2-methylpropan-2-ol]
2%	27.3 nM	4%	933 nM			Fc1ccc(Cl)c(-c2ccc(N[C@H]3C[C@@H]4CN(C5CCCC5)C[C@@H]4C3)nn2)c1 [compound 74, (3aR,5s,6aS)-N-(6-(2-chloro-5-fluorophenyl)pyridazin-3-yl)-2-cyclopentyloctahydrocyclopenta[c]pyrrol-5-amine]
2%	3.2 nM	3%	41.8 nM			Fc1ccc(Cl)c(-c2ccc(N[C@H]3C[C@@H]4CN(C5CCCCCC5)C[C@@H]4C3)nn2)c1 [compound 75, (3aR,5s,6aS)-N-(6-(2-chloro-5-fluorophenyl)pyridazin-3-yl)-2-cycloheptyloctahydrocyclopenta[c]pyrrol-5-amine]
3%	189 nM	4%	350 nM			Fc1ccc(Cl)c(-c2ccc(N[C@H]3C[C@@H]4CN(C5Cc6ccccc6C5)C[C@@H]4C3)nn2)c1 [compound 76, (3aR,5s,6aS)-N-(6-(2-chloro-5-fluorophenyl)pyridazin-3-yl)-2-(2,3-dihydro-1H-inden-2-yl)octahydrocyclopenta[c]pyrrol-5-amine]
3%	25.7 nM	7%	387 nM			Fc1ccc(Cl)c(-c2ccc(N[C@H]3C[C@@H]4CN(C5CCC6(CCCCC6)CC5)C[C@@H]4C3)nn2)c1 [compound 77, (3aR,5s,6aS)-N-(6-(2-chloro-5-fluorophenyl)pyridazin-3-yl)-2-(spiro[5.5]undecan-3-yl)octahydrocyclopenta[c]pyrrol-5-amine]
3%	2.3 nM	3%	102 nM			Fc1ccc(Cl)c(-c2ccc(N[C@H]3C[C@@H]4CN(C5CCC6(CCOCC6)CC5)C[C@@H]4C3)nn2)c1 [compound 78, (3aR,5s,6aS)-N-(6-(2-chloro-5-fluorophenyl)pyridazin-3-yl)-2-(3-oxaspiro[5.5]undecan-9-yl)octahydrocyclopenta[c]pyrrol-5-amine]
8%	1750 nM	42%	> 10000 nM			O=S1(=O)CCC(N2C[C@H]3C[C@H](Nc4ccc(-c5cc(F)ccc5Cl)nn4)C[C@H]3C2)CC1 [compound 79, 4-((3aR,5s,6aS)-5-((6-(2-chloro-5-fluorophenyl)pyridazin-3-yl)amino)hexahydrocyclopenta[c]pyrrol-2(1H)-yl)tetrahydro-2H-thiopyran 1,1-dioxide]
